Reference: US20240246964A1 (Arbutus Biopharma Corporation, priority 2021, published 2024)

Target: human PD-L1 (Homo sapiens (Human), UniProt Q9NZQ7)
Assay: T cell activation luciferase reporter cell culture system (T Cell Activation Assay)
Assay type: cell-based
Details: luciferase reporter assay; PD-L1 aAPC/CHO-K1 cells with PD-1 effector Jurkat T cells

Sequence of human PD-L1 (Q9NZQ7 19-290): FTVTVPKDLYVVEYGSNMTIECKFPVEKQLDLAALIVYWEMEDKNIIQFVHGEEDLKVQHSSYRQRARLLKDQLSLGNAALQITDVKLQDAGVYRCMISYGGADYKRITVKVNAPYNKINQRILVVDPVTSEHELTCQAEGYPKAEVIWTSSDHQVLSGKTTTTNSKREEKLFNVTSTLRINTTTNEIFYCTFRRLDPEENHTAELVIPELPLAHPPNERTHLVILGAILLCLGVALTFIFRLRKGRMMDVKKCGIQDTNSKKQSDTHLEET

| Compound | EC50 [nM] |
| --- | --- |
| COc1cc(-c2nccc(-c3cccc(-c4ccc(CN5CC6(C5)CN(C(C)=O)C6)c(OC)n4)c3C#N)c2Cl)ccc1CN1CC2(C1)CN(C(C)=O)C2 [Example 636, 2-(2-(4-((6-Acetyl-2,6-diazaspiro[3.3]heptan-2-yl)methyl)-3-methoxyphenyl)-3-chloropyridin-4-yl)-6-(5-((6-acetyl-2,6-diazaspiro[3.3]heptan-2-yl)methyl)-6-methoxypyridin-2-yl)benzonitrile] | 1270 |
| COc1cc(-c2nccc(-c3cccc(NC(=O)c4ccc(CNC[C@@H]5CCC(=O)N5)cn4)c3C)c2Cl)ccc1CNC[C@@H]1CCC(=O)N1 [Example 647, N-(3-(3-Chloro-2-(3-methoxy-4-(((((S)-5-oxopyrrolidin-2-yl)methyl)amino)methyl)phenyl)pyridin-4-yl)-2-methylphenyl)-5-(((((S)-5-oxopyrrolidin-2-yl)methyl)amino)methyl)picolinamide] | 65.3 |
| COc1cc(-c2nccc(-c3cccc(NC(=O)c4ccc(CN5CC6(C5)CN(C(C)=O)C6)cn4)c3C)c2Cl)ccc1CN1CC2(C1)CN(C(C)=O)C2 [Example 649, 5-((6-Acetyl-2,6-diazaspiro[3.3]heptan-2-yl)methyl)-N-(3-(2-(4-((6-acetyl-2,6-diazaspiro[3.3]heptan-2-yl)methyl)-3-methoxyphenyl)-3-chloropyridin-4-yl)-2-methylphenyl)picolinamide] | ≥ 10000 |
| COc1cc(-c2nccc(-c3cccc(-c4ccc(CN5CC6(CNC(=O)C6)C5)c(OC)n4)c3C#N)c2Cl)ccc1CN1CC2(CNC(=O)C2)C1 [Example 653, 2-(3-Chloro-2-(3-methoxy-4-((7-oxo-2,6-diazaspiro[3.4]octan-2-yl)methyl)phenyl)pyridin-4-yl)-6-(6-methoxy-5-((7-oxo-2,6-diazaspiro[3.4]octan-2-yl)methyl)pyridin-2-yl)benzonitrile] | 208 |
| COc1nc(-c2cccc(-c3ccnc(-c4cc(OC)c5nc(CNCCO)nn5c4)c3Cl)c2Cl)ccc1CNC1CCN(C(C)=O)CC1 [Example 654, 1-(4-(((6-(2-Chloro-3-(3-chloro-2-(2-(((2-hydroxyethyl)amino)methyl)-8-methoxy-[1,2,4]triazolo[1,5-a]pyridin-6-yl)pyridin-4-yl)phenyl)-2-methoxypyridin-3-yl)methyl)amino)piperidin-1-yl)ethan-1-one] | 82.8 |
| COc1nc(-c2cccc(-c3ccnc(-c4cc(OC)c5nc(CN6CC7(CNC(=O)C7)C6)nn5c4)c3Cl)c2Cl)ccc1CNC1CCN(C(C)=O)CC1 [Example 659, 2-((6-(4-(3-(5-(((1-Acetylpiperidin-4-yl)amino)methyl)-6-methoxypyridin-2-yl)-2-chlorophenyl)-3-chloropyridin-2-yl)-8-methoxy-[1,2,4]triazolo[1,5-a]pyridin-2-yl)methyl)-2,6-diazaspiro[3.4]octan-7-one] | 82.2 |
| COc1nc(-c2cccc(-c3ccnc(-c4cc5c(OC)nc(CNCCO)nn5c4)c3Cl)c2Cl)ccc1CNC1CCN(C(C)=O)CC1 [Example 661, 1-(4-(((6-(2-Chloro-3-(3-chloro-2-(2-(((2-hydroxyethyl)amino)methyl)-4-methoxypyrrolo[2,1-f][1,2,4]triazin-6-yl)pyridin-4-yl)phenyl)-2-methoxypyridin-3-yl)methyl)amino)piperidin-1-yl)ethan-1-one] | 820 |
| COc1nc(-c2cccc(-c3ccnc(-c4ccc(CN5CC6(C5)CN(C(C)=O)C6)c(OC(F)F)c4)c3Cl)c2Cl)ccc1CNC1CCOCC1 [Example 663, 1-(6-(4-(3-Chloro-4-(2-chloro-3-(6-methoxy-5-(((tetrahydro-2H-pyran-4-yl)amino)methyl)pyridin-2-yl)phenyl)pyridin-2-yl)-2-(difluoromethoxy)benzyl)-2,6-diazaspiro[3.3]heptan-2-yl)ethan-1-one] | 39.9 |
| COc1nc(-c2cccc(-c3ccnc(-c4ccc(CN5CC6(C5)CN(C(C)=O)C6)c(OC(F)F)c4)c3Cl)c2Cl)ccc1CNC1CCN(C(C)=O)CC1 [Example 664, 1-(4-(((6-(3-(2-(4-((6-Acetyl-2,6-diazaspiro[3.3]heptan-2-yl)methyl)-3-(difluoromethoxy)phenyl)-3-chloropyridin-4-yl)-2-chlorophenyl)-2-methoxypyridin-3-yl)methyl)amino)piperidin-1-yl)ethan-1-one] | 32.4 |
| COc1nc(-c2ccnc(-c3cccc4c3CC[C@@H]4Nc3nc(OC)c(CNC[C@@H]4CCC(=O)N4)cc3C(F)(F)F)c2Cl)ccc1CNC1CCOCC1 [Example 666, (S)-5-((((6-(((S)-4-(3′-Chloro-6-methoxy-5-(((tetrahydro-2H-pyran-4-yl)amino)methyl)-[2,4′-bipyridin]-2′-yl)-2,3-dihydro-1H-inden-1-yl)amino)-2-methoxy-5-(trifluoromethyl)pyridin-3-yl)methyl)amino)methyl)pyrrolidin-2-one] | 114 |
| COc1cc(-c2nccc(-c3cccc(-c4ccc(CN5CC6(C5)CN(C(=O)CO)C6)c(OC)n4)c3Cl)c2Cl)ccc1CN1CC2(C1)CN(C(=O)CO)C2 [Example 667, 1-(6-((6-(2-Chloro-3-(3-chloro-2-(4-((6-(2-hydroxyacetyl)-2,6-diazaspiro[3.3]heptan-2-yl)methyl)-3-methoxyphenyl)pyridin-4-yl)phenyl)-2-methoxypyridin-3-yl)methyl)-2,6-diazaspiro[3.3]heptan-2-yl)-2-hydroxyethan-1-one] | 66.1 |
| COc1cc(-c2nccc(-c3nccc(-c4ccc(CNC5CCN(C(C)=O)CC5)c(OC)n4)c3Cl)c2Cl)ccc1CNC1CCN(C(C)=O)CC1 [Example 668, 1-(4-((4-(5-(((1-acetylpiperidin-4-yl)amino)methyl)-3′,3″-dichloro-6-methoxy-[2,4′:2′,4″-terpyridin]-2″-yl)-2-methoxybenzyl)amino)piperidin-1-yl)ethan-1-one] | 244 |
| COc1cc(-c2nccc(-c3cccc(-c4ccc(CN5CC6(CCN(CCO)C6)C5)c(OC)n4)c3Cl)c2Cl)ccc1CN1CC2(CCN(CCO)C2)C1 [Example 670, 2-(2-((6-(2-Chloro-3-(3-chloro-2-(4-((6-(2-hydroxyethyl)-2,6-diazaspiro [3.4]octan-2-yl)methyl)-3-methoxyphenyl)pyridin-4-yl)phenyl)-2-methoxypyridin-3-yl)methyl)-2,6-diazaspiro[3.4]octan-6-yl)ethan-1-ol] | 62.2 |
| COc1cc(-c2nccc(-c3cccc(-c4ccc(CN5CC6(CCN(C(C)=O)C6)C5)c(OC)n4)c3Cl)c2Cl)ccc1CN1CC2(CCN(C(C)=O)C2)C1 [Example 671, 1-(2-((6-(3-(2-(4-((6-Acetyl-2,6-diazaspiro[3.4]octan-2-yl)methyl)-3-methoxyphenyl)-3-chloropyridin-4-yl)-2-chlorophenyl)-2-methoxypyridin-3-yl)methyl)-2,6-diazaspiro[3.4]octan-6-yl)ethan-1-one] | 29.6 |
| COc1cc(-c2nccc(-c3cccc(NC(=O)c4ccc(CN5CC6(CNC(=O)C6)C5)cn4)c3Cl)c2Cl)ccc1CN1CC2(CNC(=O)C2)C1 [Example 672, N-(2-Chloro-3-(3-chloro-2-(3-methoxy-4-((7-oxo-2,6-diazaspiro[3.4]octan-2-yl)methyl)phenyl)pyridin-4-yl)phenyl)-5-((7-oxo-2,6-diazaspiro[3.4]octan-2-yl)methyl)picolinamide] | 217 |
| COc1cc(-c2nccc(-c3cccc(NC(=O)c4ccc(CNC5CCN(C(C)=O)CC5)cn4)c3Cl)c2Cl)ccc1CNC1CCN(C(C)=O)CC1 [Example 673, 5-(((1-Acetylpiperidin-4-yl)amino)methyl)-N-(3-(2-(4-(((1-acetylpiperidin-4-yl)amino)methyl)-3-methoxyphenyl)-3-chloropyridin-4-yl)-2-chlorophenyl)picolinamide] | 234 |
| COc1cc(-c2nccc(-c3cccc(NC(=O)c4ccc(CNC5CCOCC5)cn4)c3Cl)c2Cl)ccc1CNC1CCOCC1 [Example 674, N-(2-Chloro-3-(3-chloro-2-(3-methoxy-4-(((tetrahydro-2H-pyran-4-yl)amino)methyl)phenyl)pyridin-4-yl)phenyl)-5-(((tetrahydro-2H-pyran-4-yl)amino)methyl)picolinamide] | 337 |
| COc1nc(-c2cccc(-c3ccnc(-c4ccc(CNC5CCN(C(C)=O)CC5)c(OC(F)F)c4)c3Cl)c2Cl)ccc1CN1CC2(C1)CN(C(C)=O)C2 [Example 690, 1-(4-((4-(4-(3-(5-((6-Acetyl-2,6-diazaspiro[3.3]heptan-2-yl)methyl)-6-methoxypyridin-2-yl)-2-chlorophenyl)-3-chloropyridin-2-yl)-2-(difluoromethoxy)benzyl)amino)piperidin-1-yl)ethan-1-one] | 42.2 |
| COCC(=O)N1CC2(CN(Cc3ccc(-c4cccc(-c5ccnc(-c6ccc(CN7CC8(C7)CN(C(C)=O)C8)c(OC)c6)c5Cl)c4Cl)nc3OC)C2)C1 [Example 691, 1-(6-((6-(3-(2-(4-((6-Acetyl-2,6-diazaspiro[3.3]heptan-2-yl)methyl)-3-methoxyphenyl)-3-chloropyridin-4-yl)-2-chlorophenyl)-2-methoxypyridin-3-yl)methyl)-2,6-diazaspiro[3.3]heptan-2-yl)-2-methoxyethan-1-one] | 67.6 |
| COc1cc(-c2nccc(-c3cccc(-c4ccc(CN5CC6(CCN(C(C)=O)C6)C5)c(OC)n4)c3Cl)c2Cl)ccc1CN1CCC(O)CC1 [Example 692, 1-(2-((6-(2-Chloro-3-(3-chloro-2-(4-((4-hydroxypiperidin-1-yl)methyl)-3-methoxyphenyl)pyridin-4-yl)phenyl)-2-methoxypyridin-3-yl)methyl)-2,6-diazaspiro[3.4]octan-6-yl)ethan-1-one] | 43.5 |
| CNCc1ccc(C(=O)Nc2cccc(-c3ccnc(-c4ccc(CNC)c(OC)c4)c3Cl)c2Cl)nc1 [Example 694, N-(2-chloro-3-(3-chloro-2-(3-methoxy-4-((methylamino)methyl)phenyl)pyridine-4-yl)phenyl)-5-((methylamino)methyl)picolinamide] | 69.7 |
| COc1cc(-c2nccc(-c3cccc(NC(=O)c4ccc(CNC5CC6(COC6)C5)cn4)c3Cl)c2Cl)ccc1CNC1CC2(COC2)C1 (stereo not shown) [Example 695, 5-(((2-Oxaspiro[3.3]heptan-6-yl)amino)methyl)-N-(3-(2-(4-(((2-oxaspiro[3.3]heptan-6-yl)amino)methyl)-3-methoxyphenyl)-3-chloropyridin-4-yl)-2-chlorophenyl)picolinamide] | 169 |
